Patent US20240366571A1, “MODULATORS OF SK4 POTASSIUM CHANNEL AND USES THEREOF” (Ramot at Tel-Aviv University Ltd., priority 2022, published 2024)

Key:
rat SK2 = target: T1, rat SK2 (Rattus norvegicus, UniProt P70604); assay: Whole-cell patch-clamp of SK2 currents in CHO cells; format: cell-based; details: 20 μM
T1 construct: expressed in transfected cells; host or cells: CHO cells
Description: Constructs: For CHO cell transfection, the following were cloned: human SK1, rat SK2, human SK3, and rat calmodulin into the pcDNA3 vector, human SK4 into pEGFP-C1 vector, and PIP4,5-kinase into an IRES-dsRed plasmid. The mutations were introduced using the PCR-based QuikChange™ site-directed mutagenesis (Stratagene®) and were verified by full sequencing of the entire plasmid vector.
Cell Culture and Transfection: Chinese hamster ovary (CHO) cells were grown in Dulbecco's modified Eagle's medium supplemented with 2 millimolar (mM) glutamine, 10% fetal calf serum, and antibiotics. In brief, 40,000 cells seeded on poly-L-lysine-coated glass coverslips (13 millimeter (mm) in diameter) in a 24-multiwell plate were transfected with 0.5 microgram (μg) pEGFP-SK4/0.5 μg mutant SK4, 1.2 μg dsRed-PIP4,5-kinase or with 1 μg SK1/SK2/SK3 together with pIRES-CD8 (0.3 μg) as a marker for transfection. […]
Whole-cell patch-clamp recording: Voltage-clamp recordings were performed using the whole-cell configuration of the patch-clamp technique. […] The intracellular pipette solution contained 130 mM KCl, 5 mM EGTA, 10 mM HEPES, pH 7.3 (adjusted with KOH), and CaCl2 calculated for a final concentration of 1 μM free-Ca^2+, by MAXCHELATOR (WEBMAXC STANDARD) software, with sucrose added to adjust osmolarity to 290 mosM. […]

isolated rat hearts = assay: Langendorff perfused isolated rat hearts: electrophysiology and hemodynamics; details: 10 μM
Description: Animals: Adult male Sprague-Dawley rats (n=56, 200-250 grams) and Guinea pigs (n=19, 400-700 grams) obtained from Envigo Laboratories (Jerusalem, Israel) were bred and grown in Ben-Gurion University of the Negev, Israel. Experiments in rats and guinea pigs were approved by the institutional ethics committee of Ben-Gurion University of the Negev, Israel (Protocol No. IL-24-05-2020(D) and were carried out in strict accordance with the Guide for the Care and Use of Laboratory Animals of the National Institutes of Health. The animals were kept under standardized conditions: 12:12 light: dark cycles at 20-24° C. and 30-70% relative humidity.
Perfused isolated hearts—Langendorff method: The isolated heart experiment setup was performed as described in Etzion et al., Am J Physiol Heart Circ Physiol (2008) 295, H1460-1469; and Mor et al., J Pharmacol Exp Ther (2013) 344, 59-67.]. Briefly, each animal was anesthetized with 2% isoflurane and an intraperitoneal (IP) injection of pentobarbital (60 mg/kg), followed by IP injection of Heparin (1000 U/kg). The heart was rapidly excised and placed into ice-cold Tyrode's buffer solution (consisted of 140 mM NaCl, 5.4 mM KCl, 0.5 mM MgCl2, 2.5 mM CaCl2, 0.39 mM NaH2PO4, 10 mM HEPES and 11 mM glucose, and titrated to pH 7.4 with NaOH). The aorta was cannulated and connected to a pre-heated (37° C.) and oxygenated perfusion system with Tyrode's solution while perfusion pressure was maintained at about 70 mmHg throughout the experiment. Prior to the experiment, the heart was left in Tyrode's solution to stabilize for 20 minutes for hemodynamic measurements, the left atrial appendage was excised, and a collapsed latex balloon was inserted into the left ventricle (LV) through the mitral valve. Once positioned, the balloon was filled with double distilled water reaching an end-diastolic pressure of 10-15 mmHg. Coronary perfusion pressure and LV pressure were recorded by a pressure amplifier (ETH-256C amplifier and B-100 probes, iWorx, NH, USA). Electrophysiological signals were recorded from the high right atrium (HRA) via a miniature quadripolar hook electrode (for simultaneous pacing and recording) and from the LV via a bipolar hook electrode. Electrical signals were filtered (1-2 kHz) and recorded by two voltage amplifiers (Model 3000, A-M Systems, Carlsberg, WA, USA). Signals were interfaced with a PC using an A/D converter (PCI-6024E, National Instruments, Austin TX, USA) and a custom-designed program developed with LabVIEW programing language (National Instruments, Austin, TX, USA) to control signal acquisition, data saving and off-line analysis. Measured physiological parameters during the experiment included perfusion flow (ml/minute) as a marker for coronary perfusion pressure, LV developed pressure, dP/dt±(representing the rate of rise of left ventricular pressure during isovolumetric contraction as a marker for LV contractility), heart rate, PR, and RR intervals. Tram-34 and BA6b9 were applied for a 20-minutes incubation period and physiological parameters were recorded.
Effective refractory period measurements: Using both custom-made quadripolar electrode inserted on the HRA and two bipolar electrodes (recording and pacing) on the LV, allowed measurement of the effective refractory period (ERP) at the atrial level (atrial effective refractory period, AERP), atrioventricular level (AVERP), and ventricular level (VERP). For ERP measurement, a programmed S1S2 stimulation protocol was performed using double diastolic threshold intensity. The protocol consisted of ten S1-S2 intervals of 150 milliseconds (ms) followed by an S1-S2 interval that was reduced by 1 ms each time, until pacing capture failed three consecutive times. AERP, AVERP, and VERP were measured and recorded prior and after exposure to the used inhibitor, either Tram-34 or BA6b9.

## CCCCCCCn1c(=O)oc2ccccc21 [BA6b9, 3-heptylbenzo[d]oxazol-2(3H)-one]
Rat SK2
  SK2 activity in comparison with control: 134%
  SK2 drug-to-control current ratio: 1.34
Isolated rat hearts
  AERP (effect): prolonged
  AVERP (effect): prolonged
  VERP (effect): did not change
  coronary flow (perfusion flow velocity): minimal effect
  left ventricular filling pressure (developed pressure): reduced
  maximal pressure change in left ventricular contractility (dP/dt max): does not effect it
  minimal pressure change in left ventricular contractility (dP/dt min): does not effect it
Isolated rat hearts; from 56 ms before compound
  AERP: 63 ms
  PR interval: 68 ms
Isolated rat hearts; from 84 ms before compound
  AVERP: 89 ms
Isolated rat hearts; from 228 bpm before compound
  heart rate: 196 bpm
